Experimental data taken from patent US20260364088A1, “TASL MIMICKING MOLECULES AND APPLICATIONS THEREOF” (CEMM - FORSCHUNGSZENTRUM FÜR MOLEKULARE MEDIZIN GMBH, priority 2022, published 2026).

What was measured:
[1] = biological target: ΔN-SLC15A4-GFP (Homo sapiens, UniProt Q8N697); experiment: ΔN-SLC15A4-GFP levels and localization in HEK293T cells; format: cell-based; conditions: 10 µM, 24 h
Procedure: Cells transfected with TASL-V5 plasmid were stained for V5-tag and detected with deep red Alexa Fluor 647 secondary antibody to allow for selection in the presence of an mCherry reporter. Cells were measured either immediately after staining or in the case of live cells immediately after harvesting and washing with PBS. Data were acquired on a BD FACSCalibur (BD Biosciences) and analyzed with FlowJo software (version 10).
For live cell imaging cells were plated in PhenoPlate 96-well plates or Ibidi m-Slide 8 (Ibidi) wells at 16 k/well and incubated over-night. Then compounds were added, if indicated, and cells were imaged after 24 h of incubation. Cells were stained with LysoTracker Deep Red L12492 (ThermoFisher) and Hoechst 34580 (ThermoFisher). […] Images were analyzed with Fiji-ImageJ.
Encouraged by the fact that the chemical entity of the present invention was showing the desired behavior and specificity profile, it became important to better clarify the molecular basis of this uncommon mechanism of action, i.e interference with a highly specific protein interaction leading to degradation of a single complex component. The effect of dTASL1 on complex assembly was first monitored. […]

[2] = system: CAL-1 pDCs; experiment: ELISA of R848-induced responses in CAL-1 pDCs; format: cell-based, human
Procedure: CAL-1, THP1 or human primary cells were incubated with dTASL1 and other identified compounds (or the corresponding volume of DMSO vehicle) for 24 h or 48 h at the indicated concentration and subsequently stimulated with R848 (5 μg/ml) for the indicated time. Supernatant or cells were recovered for ELISA, SDS-PAGE or microscopy-based analysis.
All enzyme-linked immunosorbent assay (ELISA) experiments were performed using diluted cell supernatant according to manufacturer's instructions. ELISA kits for human IL-6 (no. 88-7066-88), human CCL2 (no. 88-7399-88) and human TNF (no. 88-7346-77) were from Invitrogen. ELISA kit for human interferon beta […] was from PBL Assay Science (41410-1).
Based on potency and kinetics, the compound C5 was selected for further characterization (FIG. 2E). C5 is an elongated molecule comprised of an aromatic 2-(4-ethoxyphenyl)-quinoline moiety followed by an amide bond and an aliphatic 2-methyl-1-propylpiperidine (FIG. 2F). To validate the scaffold and explore the chemical space at the aliphatic end of the compound, five analogues and an independently synthesized batch of C5 were obtained. […] Therefore the C5 compound was selected, which was named dTASL1 as its activity leads to TASL degradation, to assess effects on TLR7/8-induced signaling and responses.

[3] = system: TNF production in human peripheral blood mononuclear cells (PBMCs); experiment: TNF ELISA, R848-stimulated PBMCs; format: cell-based; conditions: bulk PBMCs, dTASL1 10 µM 24 h, R848 (5 μg/ml) 16 h, n=8
Excerpt: (§1) HEK293T cells and THP1 cells were purchased from ATCC, THP1 DUAL/ISRE reporter cell lines from Invivogen. CAL-1 cells were provided by T. Maeda (Nagasaki University). Cell lines—except for CAL-1—were authenticated by short tandem repeat profiling and regularly tested for mycoplasma contamination. Human primary PBMCs were isolated from the blood of anonymous healthy donors as well as SLE patients included in our biobank approved by the ethics committee of the Medical University of Vienna (EK2071/2020 and EK1075/2021). CD14^+ monocytes were purified by magnetic-activated cell sorting (Miltenyi Biotec, #130-050-201) according to the manufacturers protocol. Purity of CD14^+ cells ranged between 80.8% and 94.2% as determined by flow cytometry analysis. […]
(§2) Given that all evidence obtained seems to confirm the mechanistic precision of this chemical agent, any further consideration of assessing the therapeutic potential required evidence for activity in human primary cells relevant for SLE pathophysiology. The effect of dTASL1 in human peripheral blood mononuclear cells (PBMCs) was assessed. […] The impact of dTASL1 on TLR7/8 responses by directly monitoring IRF5 by confocal microscopy in B cells was assessed.

[4] = system: IRF5; experiment: IRF5 nuclear translocation in CD19^+ B cells of PBMCs (confocal microscopy); format: cell-based, human; conditions: primary B cells, dTASL1 10 µM 24 h, R848 (5 μg/ml) 3 h, n=7
Procedure: PBMCs were treated for 24 h with DMSO or dTASL1 (10 µM) and thereafter stimulated with 5 μg/ml R848 (Invivogen) for three hours or left unstimulated. Cells were harvested and stained for 30 minutes with PE-conjugated anti-CD19 antibodies (BioLegend, #302254, 1:200 in PBS/2% FBS) on ice and fixed with 4% formaldehyde in PBS for 15 minutes at RT. Permeabilization and staining for NF-κB p65 and IRF5 and counterstaining was performed as for CAL-1 and cells were seeded at a concentration of 3×10^4 cells/well onto 384-well imaging plates. Images were acquired on a PerkinElmer Opera Phenix HCS spinning disc confocal microscope and analyzed as described above with the additional identification of B cells based on CD19 membrane staining intensity. This protocol also applies to the cells obtained from SLE patients.
Given that all evidence obtained seems to confirm the mechanistic precision of this chemical agent, any further consideration of assessing the therapeutic potential required evidence for activity in human primary cells relevant for SLE pathophysiology. The effect of dTASL1 in human peripheral blood mononuclear cells (PBMCs) was assessed. […] It has been previously shown that the SLC15A4-TASL module was required for TNF production in primary human monocytes. […] The impact of dTASL1 on TLR7/8 responses by directly monitoring IRF5 by confocal microscopy in B cells was assessed.

[5] = system: TNF production in CD14^+ monocytes; experiment: TNF ELISA, R848-stimulated purified CD14^+ monocytes; format: cell-based, human; conditions: purified CD14^+ cells, dTASL1 10 µM 24 h, R848 (5 μg/ml) 16 h, n=8
Excerpt: as §1, §2

[6] = biological target: TASL-SLC15A4 complex (Homo sapiens, UniProt Q8N697); experiment: PM-associated TASL levels in cells coexpressing ΔN-SLC15A4 and TASL-GFP; format: cell-based; conditions: 10 µM, 24 h
TASL-SLC15A4 complex, sequence (Q8N697 whole entry, one chain of several): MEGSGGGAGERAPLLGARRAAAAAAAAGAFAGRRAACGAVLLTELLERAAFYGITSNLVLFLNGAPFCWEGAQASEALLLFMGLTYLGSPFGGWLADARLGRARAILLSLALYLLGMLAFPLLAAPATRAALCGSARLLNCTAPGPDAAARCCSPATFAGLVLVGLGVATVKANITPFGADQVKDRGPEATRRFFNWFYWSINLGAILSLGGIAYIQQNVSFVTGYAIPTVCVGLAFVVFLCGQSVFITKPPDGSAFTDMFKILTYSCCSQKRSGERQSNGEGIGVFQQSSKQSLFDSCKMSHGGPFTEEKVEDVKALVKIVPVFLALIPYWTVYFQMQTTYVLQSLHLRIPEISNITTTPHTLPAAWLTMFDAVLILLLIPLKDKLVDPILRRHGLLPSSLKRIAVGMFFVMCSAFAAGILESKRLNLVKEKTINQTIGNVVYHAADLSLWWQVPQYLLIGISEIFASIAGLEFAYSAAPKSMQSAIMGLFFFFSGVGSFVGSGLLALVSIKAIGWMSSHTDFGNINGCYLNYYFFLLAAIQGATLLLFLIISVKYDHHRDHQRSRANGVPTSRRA
Procedure: For live cell imaging cells were plated in PhenoPlate 96-well plates or Ibidi m-Slide 8 (Ibidi) wells at 16 k/well and incubated over-night. Then compounds were added, if indicated, and cells were imaged after 24 h of incubation. Cells were stained with LysoTracker Deep Red L12492 (ThermoFisher) and Hoechst 34580 (ThermoFisher). PhenoPlate images were acquired on an Opera Phenix Plus High-Content Screening System (PerkinElmer) and m-Slide images were acquired on a confocal laser scanning microscope (Zeiss LSM980, Carl Zeiss) equipped with an incubation chamber. Images were analyzed with Fiji-ImageJ.
Encouraged by the fact that the chemical entity of the present invention was showing the desired behavior and specificity profile, it became important to better clarify the molecular basis of this uncommon mechanism of action, i.e interference with a highly specific protein interaction leading to degradation of a single complex component. The effect of dTASL1 on complex assembly was first monitored. […] While total levels of SLC15A4-GFP were unaltered, localization appears to reflect some lysosomal rearrangement. […] To further rule out the residual possibility of an indirect effect, possibly related to TASL maturation or transport, dTASL1 competition assays with GFP-SLC15A4 associated with short N-terminal portions of TASL protein were performed. […]

ΔN-SLC15A4-GFP, sequence (Q8N697 whole entry, stated change not applied): as the sequence (Q8N697 whole entry, one chain of several) above

For `CCOc1ccc(-c2cc(C(=O)NCCCN3CCCCC3C)c3ccccc3n2)cc1` (stereo not shown) [dTASL1, 2-(4-ethoxyphenyl)-N-(3-(2-methylpiperidin-1-yl)propyl) quinoline-4-carboxamide], the “levels or localization of ΔN-SLC15A4-GFP” value [1] was “did not affect levels or localization of ΔN-SLC15A4-GFP”, the R848-induced responses ([2]; CAL-1 pDCs, 24 h pre-treatment, R848 (5 μg/ml) 16-24 h) was “strongly suppressed R848-induced responses” and the “downstream type I IFN production” value ([2]; human monocytic and pDC cell lines) was “specifically impairs TLR7/8-induced IRF5 activation and downstream type I IFN production”. For the same compound, the TNF production [3] was “potently impaired TNF”, the IRF5 nuclear translocation [4] was “significantly reduced IRF5 nuclear translocation” and the TNF production [5] was “a significant reduction in this proinflammatory cytokine”. The “PM-associated TASL levels” value [6] was “severely reduced PM-associated TASL levels”.
